Assay results as given in patent US20220267394A1, “COMPOUNDS FOR INDUCING TISSUE FORMATION AND USES THEREOF” (HISTIDE AG, priority 2015, published 2022).
Where no end group is shown, it is not given here.

Test system: hMSCs
Test: Loss of stemness: STRO-1 expression by immunostaining
Type: cell-based, human
Method: The cells were first fixed for 20 min with 4% paraformaldehyde/PBS at 4° C. After fixation, the cells were permeabilized in PBS containing 1% Triton X-100 for 15 min. Runx2, Osterix, Stro-1, Vinculin, Phalloidin, Osteopontin, Sox2, Sox9 antibodies were visualized by treating the cells with 1% (v/v) specific monoclonal antibodies for 1 hour at 37° C. Then the samples were incubated with Alexa Fluor® 568 or 647 (F(ab′)2 fragment of IgG(H+L)) during 30 min at room temperature. The cell nuclei were counterstained in 20 ng/mL DAPI for 10 min at room temperature.
For this type of quantification the freeware image analysis ImageJ® software was used. The raw image was first converted to an 8-bit file, and then the unsharp mask feature was used (settings 1:0.2) to remove the image background (rolling ball radius 10). After smoothing, the resulting image, which appears similar to the original photomicrograph but with minimal background, was then converted to a binary image by setting a threshold. Threshold values were determined empirically by selecting a setting, which gave the most accurate binary image for a subset of randomly selected photomicrographs. The cell area was determined by manual delineation on raw fluorescent images. Total contact area and mean contact area per cell were calculated by “analyse particules” in ImageJ®. A minimum of 30 cells per condition were analyzed. Stro-1, CD-34+, and CD-105 expressions were determined using this procedure.
hMSCs were cultured on conventional cell culture plastic plates with or without the presence in the cell culture media of different GFR-binding compounds as described herein (SEQ ID NO: 50 to 88) in solution. […] This was probed by Stro-1 immunostaining after cell fixation as described in the Methods section. The quantification of Stro-1 positive contact numbers and areas was performed as described in the Methods section. A minimum of 30 cells per condition were analyzed. Stro-1 positive marrow cells are multipotential and capable of differentiating into multiple mesenchymal lineages including stromal cells with a phenotype resembling vascular smooth muscle cells that can support hematopoiesis, adipocytes, osteoblasts, and chondrocytes.
Using the method detailed in the description, the RMSD of 57 previously reported peptide sequences have been determined (Table 6) and correlated with the expression of STRO-1 in solution. […] One should note that it is commonly admitted that the expression of STRO-1 in a cell is indicative of a cell that is in a substantially non-differentiated state and the decrease of its expression of at least about 20% is indicative of a cell that has started a process of differentiation but which may not result in the differentiation of the cell. A decrease of more than 50% would be indicative of the presence of a significant shift towards a differentiated state. A decrease of more than 70% would be indicative of the presence of a very important shift towards a differentiated state. A sustained decrease (e.g. for at least 96 h) of more than 50% or 70% would be indicative of the presence of an even more important shift towards a differentiated state.
Likewise, using the method detailed in the description, the RMSD of 75 GFR-binding peptide sequence representatives of the invention have been determined (Table 8) and correlated with the expression of STRO-1. SEQ ID NO: 1 to 49 were tested in combination with a bioactive carrier as defined above in the Examples Section (i.e. titanium, ceramics, collagen, etc. . . . ), whereas SEQ ID NO: 2242 to 2267 were tested in solution.

[1] = Table 8, SEQ ID NO: 2242 to 2267 tested in solution
[2] = Table 8, SEQ ID NO: 1 to 49 tested in combination with a bioactive carrier (titanium, ceramics, collagen, etc.)
[3] = Table 6, previously reported peptides in solution, 400 ng/mL

Row | Substance | STRO-1 expression (%) [2] | STRO-1 expression (%) [3] | other results
1 | 2250 (VPTVVSPISMLYIDDMGVPTYKQYEVVVVE; GFR-binding peptide) [compound 2250] | – | – | STRO-1 expression (%) [1]: 26%
2 | 43 (CAAPASSSVPARLSPISILYIDAANNVVYKQYEDMVVEASG; not fully specified; ends and bridges not checked) [compound 43] | 27% | – | –
3 | 2249 (TPTSSSPINTLYFDDMGVPTYGKIPSSVVD; GFR-binding peptide) [compound 2249] | – | – | STRO-1 expression (%) [1]: 25%
4 | 2180 (VPTKLSPISILYLDKGVVTYKFKYEGMSVAECGCR; Peptide reported in US8969040, SEQ ID NO:90) [compound 2180] | – | 80% | –
5 | 2265 (AVPKASSVPQKLEPLTILYYDSSNNVIEQLSNNMVKSASGSH; GFR-binding peptide) [compound 2265] | – | – | STRO-1 expression (%) [1]: 21%
6 | 2258 (SRVLLRPVQMRKIDKGVVTYKKATVLLEEH; GFR-binding peptide) [compound 2258] | – | – | STRO-1 expression (%) [1]: 21%
7 | 10 (CPSSAPTQLSATSVLYYDDSSNVILRKHRQHNK; GFR-binding peptide) [compound 10] | 19% | – | –
8 | 2262 (HVTKPTSVPTKLSPISILFIDDSSNVIYKQYENMVVESSGSH; GFR-binding peptide) [compound 2262] | – | – | STRO-1 expression (%) [1]: 18%
9 | 2201 (KIPKPSSAPTELSAISMC; Peptide reported in WO2009151288, SEQ ID NO:7) [compound 2201] | – | 78% | –
10 | 14 (CAPTKLSAISMLYLDSSNNVILKNYQ; GFR-binding peptide) [compound 14] | 16% | – | –
11 | 2166 (NEVLRFCGIQVPEGDEPLT; Peptide reported in WO2013040142, SEQ ID NO:101213) [compound 2166] | – | 98% | –
12 | 2252 (VPQAAEPLPMLYYDKGVVTYEQLSNAAVRS; GFR-binding peptide) [compound 2252] | – | – | STRO-1 expression (%) [1]: 19%
13 | 2261 (NDEGLESVPTGQSPISILYIRIKPHQGQHYKQYELEEHSQSESR; GFR-binding peptide) [compound 2261] | – | – | STRO-1 expression (%) [1]: 17%
14 | 19 (CPKPSSAPTQLSAISTLYLDDSSNVILKNYQMIVVRA; GFR-binding peptide) [compound 19] | 20% | – | –
15 | 2189 (SSVPAVCSATSATGPYSTATNTVWFDVYATTVY; Peptide reported in EP1687419, SEQ ID NO:46) [compound 2189] | – | 91% | –
16 | 5 (CASASPXXVSQDLNAISVLYFIGKTPKILKKYRMIVKSXKXS; GFR-binding peptide; MOD_RES (7), (8), (39), (41): Xaa is C or S) [compound 5] | 26% | – | –
17 | 2200 (FDSRVLKSAISFKENIIF; Peptide reported in WO2013040142, SEQ ID NO:2935795) [compound 2200] | – | 89% | –
18 | 2205 (KIPKPSSAPTELSAISMLYC; Peptide reported in WO2009151288, SEQ ID NO:5) [compound 2205] | – | 80% | –
19 | 2172 (PNYSVPAGNKPLSERE; Peptide reported in WO2013040142, SEQ ID NO:543064) [compound 2172] | – | 95% | –
20 | 3 (CASASPSSVSQDLSAISTLYLIGKTPKILKNYQMIVKSSKSS; not fully specified; ends and bridges not checked) [compound 3] | 18% | – | –
21 | 2211 (CCAPTELSAISVLYFDDSSNVILKKYRNMVVRACGCR; Comparative sequence) [compound 2211] | – | 81% | –
22 | 16 (CKASSVPTELSPISTLYKDENEKVVLKYHYDMVVEGSGSR; not fully specified; ends and bridges not checked) [compound 16] | 18% | – | –
23 | 2181 (VPTKLSPISILYKDDMGVPTYKFKYEGMSVAECGCR; Peptide reported in US20140056902, SEQ ID NO:88) [compound 2181] | – | 82% | –
24 | 2182 (VPTELSPISLLYLDEFEKVTLKNYQDMVVDG; Peptide reported in US20120244575, SEQ ID NO:4324) [compound 2182] | – | 87% | –

Row | Substance | STRO-1 expression (%) [2] | STRO-1 expression (%) [3] | other results
25 | 34 (GTPGPRNVQCRPTQVQLSAISTLYLEIVRKKPLKNYQTLEDH; GFR-binding peptide) [compound 34] | 18% | – | –
26 | 2171 (SHQSAGDSIKSPARHSAPTHQEPLPD; Peptide reported in WO2013040142, SEQ ID NO:3137100) [compound 2171] | – | 91% | –
27 | 8 (CAPTQLSPISVLYKDDSSNVILKYHYTLEDH; GFR-binding peptide) [compound 8] | 19% | – | –
28 | 38 (CVPTEERSVKVAKVRIKPHQGQHKEVQV; GFR-binding peptide) [compound 38] | 23% | – | –
29 | 2183 (TPTVVSATSL; Peptide reported in US20150153356, SEQ ID NO:51419) [compound 2183] | – | 98% | –
30 | 2184 (SATSRLALSDVPAELAA; Peptide reported in WO2013040142, SEQ ID NO:729730) [compound 2184] | – | 98% | –
31 | 2210 (SRVLPIVVQGYVPVQDTKFLGIYYVIGPIIARVILSSSSAISSLNKS; Peptide reported in US20040031072, SEQ ID NO:188005) [compound 2210] | – | 84% | –
32 | 2255 (SRVAARSVKMAKVGGGGGGGKEVQVAAEEH; GFR-binding peptide) [compound 2255] | – | – | STRO-1 expression (%) [1]: 31%
33 | 2196 (MAAQDEWRDAITLTMGRDLKKVPQHLNAISVIDPVT; Peptide reported in US20120246748, SEQ ID NO:111359) [compound 2196] | – | 83% | –
34 | 24 (GTPGPPSSAPTQLSATSVLYYDDSSNVILRKHRMIVKS; GFR-binding peptide) [compound 24] | 21% | – | –
35 | 20 (CKVGKASSVPTKLNAISTLYLDDSSNVILKNYQ; not fully specified; ends and bridges not checked) [compound 20] | 18% | – | –
36 | 2187 (SVPAVCSATSATGPYSTATNTVWPSIVATGGTT; Peptide reported in EP1687419, SEQ ID NO:43) [compound 2187] | – | 92% | –
37 | 2158 (VEQLSNMVVK; Peptide reported in US20130259924, SEQ ID NO:21667) [compound 2158] | – | 98% | –
38 | 11 (CPKPSSAPTQLNAISMLYFGGGGGGGLKKYRNMVVRA; GFR-binding peptide) [compound 11] | 31% | – | –
39 | 2160 (PIIYYVGRNVRVEQLSNMVVRRA; Comparative sequence) [compound 2160] | – | 98% | –
40 | 2174 (CVTKPLSSLLFPNWNTTTTPTPP; Peptide reported in WO2013040142, SEQ ID NO:642255) [compound 2174] | – | 92% | –
41 | 33 (WWFWGASSAVSQELSAISMLYLGGGLKNYQDMQHN; GFR-binding peptide) [compound 33] | 28% | – | –
42 | 2203 (TCCVPELSAISMLYLDEN; Peptide reported in US5496552, SEQ ID NO:5) [compound 2203] | – | 84% | –
43 | 23 (GTPGPKVPKPSSAPTQLSAISTLYLDEYDKVVLKNYQNMAVR; not fully specified; ends and bridges not checked) [compound 23] | 17% | – | –
44 | 2190 (VHLLKPHAVPKACCAPTKLSATSVLYYDSSNNVILRKHRNMVVRACGCH; Peptide reported in US5688678, SEQ ID NO:8) [compound 2190] | – | 88% | –
45 | 2204 (KIPKPSSAPTELSAISMLC; Peptide reported in WO2009151288, SEQ ID NO:6) [compound 2204] | – | 82% | –
46 | 2264 (KIPKASSVPQELEPLPIVYYDENEKVVEQLSNDMVRSGSGSR; GFR-binding peptide) [compound 2264] | – | – | STRO-1 expression (%) [1]: 24%
47 | 2256 (VPTDDSATSTLYYDKGVVTYLRKHRDDEHS; GFR-binding peptide) [compound 2256] | – | – | STRO-1 expression (%) [1]: 27%
